Reference: US8071287B2, “Pharmaceutical and therapeutic applications relating to a type 9 adenylyl cyclase Polymorphism in asthma and reversible bronchial obstruction” (priority 2005, dated 2011)
Changes are numbered by the printed parent chain. Each block holds one compound with its values, some of them ahead of it.

Assays:
Met772 AC9 = target: T1, Met772 AC9 (Homo sapiens, UniProt O60503, I772M); assay: Adenylyl cyclase activities in membranes of A431 cells transfected with Met772 AC9; format: biochemical; conditions: 10 μM albuterol; for stimulated adenylyl cyclase activities of Met772 compared to WT: no corticosteroid, 1.8 mM MnCl2 or 10 mM NaF; for albuterol stimulated adenylyl cyclase activities: Met772 cells, N=5
T1 construct: expressed in transfected cells
T1 sequence (O60503 1-1353 I772M): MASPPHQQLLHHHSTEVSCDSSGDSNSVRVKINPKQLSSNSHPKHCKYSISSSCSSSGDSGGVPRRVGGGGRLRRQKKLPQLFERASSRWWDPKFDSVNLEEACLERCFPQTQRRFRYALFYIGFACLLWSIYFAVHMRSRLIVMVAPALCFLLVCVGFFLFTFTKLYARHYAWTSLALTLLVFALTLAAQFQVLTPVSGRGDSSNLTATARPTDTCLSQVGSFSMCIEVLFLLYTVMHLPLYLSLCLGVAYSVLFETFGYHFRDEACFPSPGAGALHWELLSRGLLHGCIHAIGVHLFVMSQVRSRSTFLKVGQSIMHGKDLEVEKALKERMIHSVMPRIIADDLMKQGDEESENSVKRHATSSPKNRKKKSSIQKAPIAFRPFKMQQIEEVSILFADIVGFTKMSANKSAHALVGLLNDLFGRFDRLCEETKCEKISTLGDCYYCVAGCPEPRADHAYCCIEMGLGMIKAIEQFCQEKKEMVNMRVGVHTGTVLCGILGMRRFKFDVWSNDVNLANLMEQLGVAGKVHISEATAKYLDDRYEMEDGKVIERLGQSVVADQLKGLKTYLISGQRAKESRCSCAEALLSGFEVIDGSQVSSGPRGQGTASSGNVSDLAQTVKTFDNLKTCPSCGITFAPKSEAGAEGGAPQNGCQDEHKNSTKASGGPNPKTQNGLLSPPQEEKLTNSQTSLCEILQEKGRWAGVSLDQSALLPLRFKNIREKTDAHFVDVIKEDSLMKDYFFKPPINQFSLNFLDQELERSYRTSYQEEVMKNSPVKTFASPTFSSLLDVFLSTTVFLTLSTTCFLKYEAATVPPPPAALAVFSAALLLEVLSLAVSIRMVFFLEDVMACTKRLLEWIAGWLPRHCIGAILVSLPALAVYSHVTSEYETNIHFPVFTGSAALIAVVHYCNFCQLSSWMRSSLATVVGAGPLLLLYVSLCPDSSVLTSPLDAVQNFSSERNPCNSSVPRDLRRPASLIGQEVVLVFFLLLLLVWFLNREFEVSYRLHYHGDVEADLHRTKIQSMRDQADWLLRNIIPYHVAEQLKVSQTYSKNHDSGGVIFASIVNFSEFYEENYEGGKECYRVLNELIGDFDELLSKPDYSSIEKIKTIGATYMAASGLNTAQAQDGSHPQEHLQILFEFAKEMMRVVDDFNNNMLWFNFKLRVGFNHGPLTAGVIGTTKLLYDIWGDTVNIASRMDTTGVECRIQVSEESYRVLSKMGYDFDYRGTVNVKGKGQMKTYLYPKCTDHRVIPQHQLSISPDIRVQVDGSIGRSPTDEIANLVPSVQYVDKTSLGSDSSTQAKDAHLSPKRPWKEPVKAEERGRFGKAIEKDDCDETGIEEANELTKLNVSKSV
Description: (§1) The WT coding sequence for the human AC9 gene is considered that of GenBank accession number DQ005545. With the adenine of the initiator codon being considered nucleotide 1, a polymorphism consisting of an […] which results in […] (accession number DQ008441) was previously described in Small et al, Pharmacogenetics, 13, 535-541, supra. The cDNAs for […] (also referred to as WT) and […] coding regions were generated from human lymphocyte RNA, subcloned into pCNDA3, and transfections of A431 cells carried out as described. Selection of positive clones was carried out in media containing 400 μg/ml G418. Expression of AC9 was determined in individual clonal lines by Western blots (see below). A431 cells were grown in monolayers in Dulbecco's modified Eagle's medium with 4 mM […] 10% fetal bovine serum, 100 U/ml penicillin and 100 μg/ml streptomycin, at 37° in a 5% CO2 atmosphere. In some studies, cells at 90% confluency in the absence of serum were treated with 500 nM dexamethasone for 12 hours and then utilized as described below. […] M et al., “Beta1-adrenergic receptor polymorphisms confer differential function and predisposition to heart failure” Nat. Med., 9, 1300-1305 (2003). […] [^32P] cAMP was separated from […] by chromatography over alumina columns. The [^3H] cAMP standard included in the stop buffer accounted for individual column recovery.

WT (Ile772) AC9 = target: T2, WT (Ile772) AC9 (Homo sapiens, UniProt O60503); assay: Adenylyl cyclase activities in membranes of A431 cells transfected with WT (Ile772) AC9; format: biochemical; conditions: for albuterol stimulated adenylyl cyclase activities: WT cells, 10 μM albuterol, N=5
T2 construct: expressed in transfected cells
T2 sequence (O60503 1-1353): T1 sequence (O60503 1-1353 I772M) with M772I
Description: as §1

asthmatic children = assay: CAMP clinical cohort: bronchodilator response (FEV1) stratified by AC9 genotype; format: in vivo, human; conditions: for Bronchodilator response at baseline: at randomization
Description: The study cohort consisted of pediatric patients who participated in the Childhood Asthma Management Program (CAMP). The study was a multicenter, randomized, trial comparing regularly scheduled inhalation treatment with the corticosteroid budesonide, the putative mast-cell “stabilizer” nedocromil, and placebo. The study design has been previously published in “Long-term effects of budesonide or nedocromil in children with asthma” N. Engl. J. Med., 343, 1054-1063 (2000). […] Once per year a methacholine challenge was performed to ascertain bronchial hyperresponsiveness. The current study utilized archived DNA from patients who participated in the CAMP DNA Ancillary Study. Because of potential population stratification issues (the allele frequency of Met772 is ˜0.30 in Caucasians and ˜0.15 in African Americans) and the small number of African American children enrolled in CAMP (14%), the current study was confined to Caucasian children. […] The analysis was focused then, on 436 children, with follow-up through 48 months, the last time point in which nearly complete measures were obtained for the cohort. The subjects' parents provided informed consent, and the study was approved by the Institutional Review Boards of each participating center.
The AC9 SNP at nucleotide 2316 was genotyped via a SEQUENOM MassARRAY MALDI-TOF mass spectrometer (Sequenom, San Diego, Calif.) for analysis of unlabeled single-base extension minisequencing reactions with a semiautomated primer design program (Spectro[…], Sequenom). […] To assess for possible population stratification, a random panel of 49 SNPs across the genome (“stratification SNPs”), obtained through the SNP Consortium (TSC) database was also genotyped. SNPs were chosen that are widely distributed throughout the genome and exclude promoters, genomic UTRs, exons, and introns of known genes.
Bronchodilator response is defined as FEV1 after bronchodilator minus FEV1 before bronchodilator divided by FEV1 before bronchodilator times 100 [(Post-FEV1−Pre-FEV1)/(Pre-FEV1)×100]. Longitudinal models of bronchodilator response, using repeated measures modeling with time as a linear effect and an unstructured covariance matrix, are used. These models evaluate change in bronchodilator response beginning at the 2 month follow-up visit, allowing for evaluation of change based on treatment type. Univariate and multivariable analyses adjusting for age, sex, and bronchodilator response at baseline are performed, under the assumption of a dominant model. To test for interaction between steroid treatment and Ile772Met genotypic status, treatment specific strata was evaluated and included interaction terms in the models. A “mean bronchodilator” response is also derived by taking all of the observations over the 4 years and dividing by the number of visits. This value was used as the primary outcome in the haplotypic assessment of interactions between the β2AR locus and the AC9 polymorphism.

β2AR = assay: 125I-CYP radioligand binding for endogenous β2AR density in transfected A431 cells; format: cell-based
Description: The cDNAs for Ile772 (also referred to as WT) and Met772 coding regions were generated from human lymphocyte RNA, subcloned into pCNDA3, and transfections of A431 cells carried out as described. Selection of positive clones was carried out in media containing 400 μg/ml G418. Expression of AC9 was determined in individual clonal lines by Western blots (see below). A431 cells were grown in monolayers in Dulbecco's modified Eagle's medium with 4 mM L-glutamate 10% fetal bovine serum, 100 U/ml penicillin and 100 μg/ml streptomycin, at 37° in a 5% CO2 atmosphere. In some studies, cells at 90% confluency in the absence of serum were treated with 500 nM dexamethasone for 12 hours and then utilized as described below.
Transfected A431 cells were washed three times with phosphate-buffered saline (PBS), detached by scraping in 5 mM Tris, pH 7.4, 2 mM ethylenediaminetetracetic acid (EDTA) buffer, and centrifuged at 30,000 g for 10 min. […] Nonspecific binding was determined with 1 μM propranolol. […] AC9 expression in these transfected cell lines was assessed by quantitative immunoblotting so as to select lines expressing Ile772 or Met772 at the same levels for pharmacologic studies, and to ascertain if corticosteroid treatment altered expression. […] Relative levels of AC9 expression were subsequently determined using ScanAnalysis software (BioSoft, Cambridge, UK).

[1] = after dexamethasone treatment (500 nM)

SMILES: [Cl][Mn][Cl] [MnCl2]
stimulated adenylyl cyclase activities of Met772 compared to WT (Met772 AC9): decreased compared to WT

SMILES: [F-].[Na+] [NaF]
stimulated adenylyl cyclase activities of Met772 compared to WT (Met772 AC9): decreased compared to WT

SMILES: CCCC1O[C@@H]2C[C@H]3[C@@H]4CCC5=CC(=O)C=C[C@]5(C)[C@H]4[C@@H](O)C[C@]3(C)[C@]2(C(=O)CO)O1 (stereo partly drawn) [budesonide]
increase in bronchodilation response of Met772 carriers compared to wild type (asthmatic children; on inhaled budesonide, univariate): ~2 percentage point

The next lines start with results.

albuterol stimulated adenylyl cyclase activities (WT (Ile772) AC9; [1]): 33 ± 2.5 pmol/min/mg
albuterol stimulated adenylyl cyclase activities (WT (Ile772) AC9; before dexamethasone treatment): 27 ± 2.1 pmol/min/mg
increase of albuterol-stimulated adenylyl cyclase response (WT (Ile772) AC9; cells expressing Ile772 cultured in the presence of glucocorticoid): ~20%
albuterol stimulated adenylyl cyclase activities (Met772 AC9; [1]): 43 ± 3.4 pmol/min/mg
albuterol stimulated adenylyl cyclase activities (Met772 AC9; before dexamethasone treatment): 24 ± 1.3 pmol/min/mg
stimulated adenylyl cyclase activities of Met772 compared to WT (Met772 AC9): not different between the lines
SMILES: CC(C)(C)NCC(O)c1ccc(O)c(CO)c1 (stereo not drawn) [albuterol]
Bronchodilator response at baseline (asthmatic children; Met772 carriers): 11.17 ± 11.24
average bronchodilator response (±SE), univariate (asthmatic children; Overall Cohort, Met772, 4 year follow-up): 9.23 ± 0.34%
average bronchodilator response (±SE), multivariate (asthmatic children; Overall Cohort, Met772, adjusted for age, gender, inhaled steroid usage, baseline response, time): 6.17 ± 0.92%
average bronchodilator response (±SE), univariate (asthmatic children; Overall Cohort, Wildtype, 4 year follow-up): 9.41 ± 0.48%
average bronchodilator response (±SE), univariate (asthmatic children; Placebo Group (no inhaled steroid), Met772): 9.94 ± 0.61%
average bronchodilator response (±SE), univariate (asthmatic children; Placebo Group (no inhaled steroid), Wildtype): 10.92 ± 0.79%
average bronchodilator response (±SE), univariate (asthmatic children; Steroid Group (inhaled budesonide), Met772): 8.72±0.54%
average bronchodilator response (±SE), multivariate (asthmatic children; Steroid Group (inhaled budesonide), Met772, adjusted): 5.78 ± 1.49%
average bronchodilator response (±SE), univariate (asthmatic children; Steroid Group (inhaled budesonide), Wildtype): 6.76±0.69%
Bronchodilator response at baseline (asthmatic children; WT patients): 10.32 ± 9.18

β2AR expression (β2AR; Met772 AC9 line after corticosteroid (dexamethasone) exposure, untreated 66±8.9): 109 ± 9.0 fmol/mg
β2AR expression (β2AR; WT AC9 line after corticosteroid (dexamethasone) exposure, untreated 51±6.2): 103 ± 7.8 fmol/mg
SMILES: C[C@@H]1C[C@H]2[C@@H]3CCC4=CC(=O)C=C[C@]4(C)[C@@]3(F)[C@@H](O)C[C@]2(C)[C@@]1(O)C(=O)CO [dexamethasone]
